Measured values: patent publication US20240336654A1, “ANTIMICROBIAL PEPTIDOMIMETICS” (SPEXIS AG, priority 2021, published 2024)
Where a SMILES comes first, the peptide text is derived from it. Bridges are numbered along the chain shown (N, C = ends). [ ]: non-standard residue; d: D form. dDab(iPr) = CC(C)NCC[C@@H](N)C(=O)O; Hyp = O=C(O)[C@@H]1C[C@@H](O)CN1; dCit = NC(=O)NCCC[C@@H](N)C(=O)O; Cit = NC(=O)NCCC[C@H](N)C(=O)O; Pen = CC(C)(S)[C@H](N)C(=O)O; dDab = NCC[C@@H](N)C(=O)O; Dab = NCC[C@H](N)C(=O)O

Key:
Assay type in all cases: cell-based
[1] = tested on: human red blood cells (hRBC); settings: red cells of human, 1 h, 200 μg/mL
Summary of the method: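 Percent hemolysis derived from OD540 of supernatants relative to full lysis by 2.5% Triton X-100 (PBS baseline). Washed fresh human erythrocytes (20% v/v) were exposed to 200 μg/mL peptide for 1 h at 37 °C with shaking.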

[2] = tested on: Klebsiella pneumoniae SSI3010; settings: SSI3010
Summary of the method: (§1)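 CLSI broth microdilution, slightly modified: cation-adjusted Mueller-Hinton II broth with about 5×10^5 CFU/mL from a 0.5 McFarland suspension, and two-fold serial peptide dilutions with Polysorbate 80 at 0.002% final. MIC (μg/mL) was the lowest concentration with no visible growth after 18-20 hours at 35° C.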

[3] = tested on: Escherichia coli ATCC 25922; settings: ATCC 25922
Summary of the method: as §1

[4] = tested on: Escherichia coli MCR-1 Af 45; settings: MCR-1 Af 45
Summary of the method: as §1

## CC[C@H](C)[C@H](NC(=O)[C@@H]1C[C@@H](O)CN1C(=O)[C@@H](N)C(C)C)C(=O)N[C@@H]1C(=O)N[C@@H](Cc2ccc(O)cc2)C(=O)N[C@@H](CO)C(=O)N[C@@H](CC(N)=O)C(=O)N[C@@H](CCCNC(=N)N)C(=O)N[C@@H](CCN)C(=O)N[C@@H]([C@@H](C)O)C(=O)N[C@H](CCCCN)C(=O)N[C@@H](CCCCN)C(=O)N[C@@H](CCN)C(=O)N[C@@H](CCN)C(=O)N[C@H](C(=O)N[C@@H](Cc2ccc(O)cc2)C(=O)O)CSSC1(C)C [Example 35, Val-Hyp-Ile-Pen-Tyr-Ser-Asn-Arg-Dab-Thr-^DLys-Lys-Dab-Dab-Cys-Tyr] (H-V[Hyp]I[Pen]YSNR[Dab]T[dK]K[Dab][Dab]CY-OH; disulfide 4-15)
[1]
  Hemolysis at 0.2 g/L: <1%
[2]
  Klebsiella pneumoniae SSI3010 MIC: 0.25 µg/mL
[3]
  Escherichia coli ATCC 25922 MIC: 0.125 µg/mL
[4]
  Escherichia coli MCR-1 Af45 MIC: 0.0625 µg/mL

## CC[C@H](C)[C@H](NC(=O)[C@@H]1C[C@@H](O)CN1C(=O)[C@@H](N)C(C)C)C(=O)N[C@@H]1C(=O)N[C@@H](Cc2ccc(O)cc2)C(=O)N[C@@H](CO)C(=O)N[C@@H](CC(N)=O)C(=O)N[C@@H](CCCNC(=N)N)C(=O)N[C@@H](CCN)C(=O)N[C@@H]([C@@H](C)O)C(=O)N[C@H](CCCNC(=N)N)C(=O)N[C@@H](CCCCN)C(=O)N[C@@H](CCN)C(=O)N[C@@H](CCN)C(=O)N[C@H](C(=O)N[C@@H](Cc2ccc(O)cc2)C(=O)O)CSSC1(C)C [Example 36, Val-Hyp-Ile-Pen-Tyr-Ser-Asn-Arg-Dab-Thr-^DArg-Lys-Dab-Dab-Cys-Tyr] (H-V[Hyp]I[Pen]YSNR[Dab]T[dR]K[Dab][Dab]CY-OH; disulfide 4-15)
[1]
  Hemolysis at 0.2 g/L: <1%
[2]
  Klebsiella pneumoniae SSI3010 MIC: 0.125 µg/mL
[3]
  Escherichia coli ATCC 25922 MIC: 0.125 µg/mL
[4]
  Escherichia coli MCR-1 Af45 MIC: 0.125 µg/mL

## CC[C@H](C)[C@H](NC(=O)[C@@H]1C[C@@H](O)CN1C(=O)[C@@H](N)C(C)C)C(=O)N[C@@H]1C(=O)N[C@@H](Cc2ccc(O)cc2)C(=O)N[C@@H](CO)C(=O)N[C@@H](CC(N)=O)C(=O)N[C@@H](CCCNC(=N)N)C(=O)N[C@@H](CCN)C(=O)N[C@@H]([C@@H](C)O)C(=O)N[C@H](CCCNC(N)=O)C(=O)N[C@@H](CCCCN)C(=O)N[C@@H](CCN)C(=O)N[C@@H](CCN)C(=O)N[C@H](C(=O)N[C@@H](Cc2ccc(O)cc2)C(=O)O)CSSC1(C)C [Example 37, Val-Hyp-Ile-Pen-Tyr-Ser-Asn-Arg-Dab-Thr-^DCit-Lys-Dab-Dab-Cys-Tyr] (H-V[Hyp]I[Pen]YSNR[Dab]T[dCit]K[Dab][Dab]CY-OH; disulfide 4-15)
[1]
  Hemolysis at 0.2 g/L: <1%
[2]
  Klebsiella pneumoniae SSI3010 MIC: 0.5 µg/mL
[3]
  Escherichia coli ATCC 25922 MIC: 0.5 µg/mL
[4]
  Escherichia coli MCR-1 Af45 MIC: 0.5 µg/mL

## CC[C@H](C)[C@H](NC(=O)[C@@H]1C[C@@H](O)CN1C(=O)[C@@H](N)C(C)C)C(=O)N[C@@H]1C(=O)N[C@@H](Cc2ccc(O)cc2)C(=O)N[C@@H](CO)C(=O)N[C@@H](CC(N)=O)C(=O)N[C@@H](CCCNC(=N)N)C(=O)N[C@@H](CCN)C(=O)N[C@@H]([C@@H](C)O)C(=O)N[C@H](CCNC(C)C)C(=O)N[C@@H](CCCCN)C(=O)N[C@@H](CCN)C(=O)N[C@@H](CCN)C(=O)N[C@H](C(=O)N[C@@H](Cc2ccc(O)cc2)C(=O)O)CSSC1(C)C [Example 38, Val-Hyp-Ile-Pen-Tyr-Ser-Asn-Arg-Dab-Thr-^DDab(iPr)-Lys-Dab-Dab-Cys-Tyr] (H-V[Hyp]I[Pen]YSNR[Dab]T[dDab(iPr)]K[Dab][Dab]CY-OH; disulfide 4-15)
[1]
  Hemolysis at 0.2 g/L: <1%
[2]
  Klebsiella pneumoniae SSI3010 MIC: 0.5 µg/mL
[3]
  Escherichia coli ATCC 25922 MIC: 0.125 µg/mL
[4]
  Escherichia coli MCR-1 Af45 MIC: 0.125 µg/mL

## CC[C@H](C)[C@H](NC(=O)[C@@H]1C[C@@H](O)CN1C(=O)[C@@H](N)C(C)C)C(=O)N[C@@H]1C(=O)N[C@@H](Cc2ccc(O)cc2)C(=O)N[C@@H](CO)C(=O)N[C@@H](CC(N)=O)C(=O)N[C@@H](CCCNC(=N)N)C(=O)N[C@@H](CCN)C(=O)N[C@@H]([C@@H](C)O)C(=O)N[C@H](CCN)C(=O)N[C@@H](C)C(=O)N[C@@H](CCN)C(=O)N[C@@H](CCN)C(=O)N[C@H](C(=O)N[C@@H](Cc2ccc(O)cc2)C(=O)O)CSSC1(C)C [Example 39, Val-Hyp-Ile-Pen-Tyr-Ser-Asn-Arg-Dab-Thr-^DDab-Ala-Dab-Dab-Cys-Tyr] (H-V[Hyp]I[Pen]YSNR[Dab]T[dDab]A[Dab][Dab]CY-OH; disulfide 4-15)
[1]
  Hemolysis at 0.2 g/L: <1%
[2]
  Klebsiella pneumoniae SSI3010 MIC: 0.5 µg/mL
[3]
  Escherichia coli ATCC 25922 MIC: 0.25 µg/mL
[4]
  Escherichia coli MCR-1 Af45 MIC: 0.25 µg/mL

## CC[C@H](C)[C@H](NC(=O)[C@@H]1C[C@@H](O)CN1C(=O)[C@@H](N)C(C)C)C(=O)N[C@@H]1C(=O)N[C@@H](Cc2ccc(O)cc2)C(=O)N[C@@H](CO)C(=O)N[C@@H](CC(N)=O)C(=O)N[C@@H](CCCNC(=N)N)C(=O)N[C@@H](CCN)C(=O)N[C@@H]([C@@H](C)O)C(=O)N[C@H](CCN)C(=O)N[C@@H](CCCNC(N)=O)C(=O)N[C@@H](CCN)C(=O)N[C@@H](CCN)C(=O)N[C@H](C(=O)N[C@@H](Cc2ccc(O)cc2)C(=O)O)CSSC1(C)C [Example 40, Val-Hyp-Ile-Pen-Tyr-Ser-Asn-Arg-Dab-Thr-^DDab-Cit-Dab-Dab-Cys-Tyr] (H-V[Hyp]I[Pen]YSNR[Dab]T[dDab][Cit][Dab][Dab]CY-OH; disulfide 4-15)
[1]
  Hemolysis at 0.2 g/L: <1%
[2]
  Klebsiella pneumoniae SSI3010 MIC: 0.5 µg/mL
[3]
  Escherichia coli ATCC 25922 MIC: 0.25 µg/mL
[4]
  Escherichia coli MCR-1 Af45 MIC: 0.125 µg/mL

## CC[C@H](C)[C@H](NC(=O)[C@@H]1C[C@@H](O)CN1C(=O)[C@@H](N)C(C)C)C(=O)N[C@@H]1C(=O)N[C@@H](Cc2ccc(O)cc2)C(=O)N[C@@H](CO)C(=O)N[C@@H](CC(N)=O)C(=O)N[C@@H](CCCNC(=N)N)C(=O)N[C@@H](CCN)C(=O)N[C@@H]([C@@H](C)O)C(=O)N[C@H](CCN)C(=O)N[C@@H](Cc2ccc(O)cc2)C(=O)N[C@@H](CCN)C(=O)N[C@@H](CCN)C(=O)N[C@H](C(=O)N[C@@H](Cc2ccc(O)cc2)C(=O)O)CSSC1(C)C [Example 41, Val-Hyp-Ile-Pen-Tyr-Ser-Asn-Arg-Dab-Thr-^DDab-Tyr-Dab-Dab-Cys-Tyr] (H-V[Hyp]I[Pen]YSNR[Dab]T[dDab]Y[Dab][Dab]CY-OH; disulfide 4-15)
[1]
  Hemolysis at 0.2 g/L: <1%
[2]
  Klebsiella pneumoniae SSI3010 MIC: 0.25 µg/mL
[3]
  Escherichia coli ATCC 25922 MIC: 0.125 µg/mL
[4]
  Escherichia coli MCR-1 Af45 MIC: 0.125 µg/mL

## CC[C@H](C)[C@@H]1NC(=O)[C@@H](CCN)NC(=O)[C@H]([C@@H](C)O)NC(=O)[C@H](CCN)NC(=O)[C@H](CCCNC(=N)N)NC(=O)[C@H](CC(N)=O)NC(=O)[C@H](CO)NC(=O)[C@H](Cc2ccc(O)cc2)NC(=O)[C@@H](NC(=O)[C@@H](NC(=O)[C@@H]2C[C@@H](O)CN2C(=O)[C@@H](N)C(C)C)[C@@H](C)CC)C(C)(C)SSC[C@@H](C(=O)N[C@@H](Cc2ccc(O)cc2)C(=O)O)NC(=O)[C@H](CCN)NC(=O)[C@H](CCN)NC1=O [Example 42, Val-Hyp-Ile-Pen-Tyr-Ser-Asn-Arg-Dab-Thr-^DDab-Ile-Dab-Dab-Cys-Tyr] (H-V[Hyp]I[Pen]YSNR[Dab]T[dDab]I[Dab][Dab]CY-OH; disulfide 4-15)
[1]
  Hemolysis at 0.2 g/L: <1%
[2]
  Klebsiella pneumoniae SSI3010 MIC: 0.25 µg/mL
[3]
  Escherichia coli ATCC 25922 MIC: 0.125 µg/mL
[4]
  Escherichia coli MCR-1 Af45 MIC: 0.125 µg/mL

## CC[C@H](C)[C@H](NC(=O)[C@@H]1C[C@@H](O)CN1C(=O)[C@@H](N)C(C)C)C(=O)N[C@@H]1C(=O)N[C@@H](Cc2ccc(O)cc2)C(=O)N[C@@H](CO)C(=O)N[C@@H](CC(N)=O)C(=O)N[C@@H](CCCNC(=N)N)C(=O)N[C@@H](CCN)C(=O)N[C@@H]([C@@H](C)O)C(=O)N[C@H](CCN)C(=O)N[C@@H](CC(N)=O)C(=O)N[C@@H](CCN)C(=O)N[C@@H](CCN)C(=O)N[C@H](C(=O)N[C@@H](Cc2ccc(O)cc2)C(=O)O)CSSC1(C)C [Example 43, Val-Hyp-Ile-Pen-Tyr-Ser-Asn-Arg-Dab-Thr-^DDab-Asn-Dab-Dab-Cys-Tyr] (H-V[Hyp]I[Pen]YSNR[Dab]T[dDab]N[Dab][Dab]CY-OH; disulfide 4-15)
[1]
  Hemolysis at 0.2 g/L: <1%
[2]
  Klebsiella pneumoniae SSI3010 MIC: 0.5 µg/mL
[3]
  Escherichia coli ATCC 25922 MIC: 0.25 µg/mL
[4]
  Escherichia coli MCR-1 Af45 MIC: 0.25 µg/mL

## CC[C@H](C)[C@H](NC(=O)[C@@H]1C[C@@H](O)CN1C(=O)[C@@H](N)C(C)C)C(=O)N[C@@H]1C(=O)N[C@@H](Cc2ccc(O)cc2)C(=O)N[C@@H](CO)C(=O)N[C@@H](CC(N)=O)C(=O)N[C@@H](CCCNC(=N)N)C(=O)N[C@@H](CCN)C(=O)N[C@@H]([C@@H](C)O)C(=O)N[C@H](CCN)C(=O)N[C@@H](CO)C(=O)N[C@@H](CCN)C(=O)N[C@@H](CCN)C(=O)N[C@H](C(=O)N[C@@H](Cc2ccc(O)cc2)C(=O)O)CSSC1(C)C [Example 44, Val-Hyp-Ile-Pen-Tyr-Ser-Asn-Arg-Dab-Thr-^DDab-Ser-Dab-Dab-Cys-Tyr] (H-V[Hyp]I[Pen]YSNR[Dab]T[dDab]S[Dab][Dab]CY-OH; disulfide 4-15)
[1]
  Hemolysis at 0.2 g/L: <1%
[2]
  Klebsiella pneumoniae SSI3010 MIC: 0.25 µg/mL
[3]
  Escherichia coli ATCC 25922 MIC: 0.25 µg/mL
[4]
  Escherichia coli MCR-1 Af45 MIC: 0.125 µg/mL
